Each block holds one molecule with its values, some of them ahead of it.
Columns and labels:
[1] = Measurement of molar absorption coefficient (JIS K0115: 2004, 405 nm); assay type: physicochemical; settings: absorbance at 405 nm; compound concentration 500 mmol/L
Description: The molar absorption coefficient of the compound A with respect to light having a wavelength of 405 nm may be less than or equal to 50 mol^−1·L·cm^−1, may be less than or equal to 10 mol^−1·L·cm^−1, may be less than or equal to 5 mol^−1·L·c^−1, may be less than or equal to 2 mol^−1·L·cm^−1, or may be less than or equal to 1 mol^−1·L·cm^−1. The lower limit of the molar absorption coefficient of the compound A is not particularly limited, and is, for example, 0.01 mol^−1·L·cm^−1. The molar absorption coefficient may be measured by, for example, a method in accordance with the manual specified in Japanese Industrial Standards (JIS) K0115: 2004. […] In the measurement of the molar absorption coefficient, furthermore, the concentration of the compound A is adjusted to 500 mmol/L. This concentration is very high compared to the concentration in the measurement test of the molar absorption coefficient of an optical absorption peak. The molar absorption coefficient may be used as an index of one-photon absorption.
The compounds of Examples and Comparative Examples were analyzed by a method in accordance with JIS K0115: 2004 to measure the molar absorption coefficient. Specifically, first, a measurement sample was provided in which the concentration of the compound had been controlled to 500 mmol/L. An absorption spectrum of the measurement sample was measured. From the spectrum obtained, the absorbance at a wavelength of 405 nm was read. The molar absorption coefficient was calculated based on the concentration of the compound in the measurement sample and the optical path length of the cell used for the measurement.

[2] = Measurement of two-photon absorption cross-section (z-scan technique, 405 nm); assay type: physicochemical; settings: for Two-photon absorption cross-section σ: light of wavelength 405 nm, Ti:sapphire pulsed laser second harmonic, pulse width 80 fs, 1 kHz; for Ratio σ/ε: two-photon absorption cross-section σ (GM) to molar absorption coefficient ε at 405 nm
Description: The two-photon absorption cross-section of the compound A irradiated with light having a wavelength of 405 nm may be greater than or equal to 1 GM, may be greater than or equal to 10 GM, may be greater than or equal to 30 GM, may be greater than or equal to 50 GM, may be greater than or equal to 70 GM, may be greater than or equal to 100 GM, may be greater than or equal to 200 GM, or may be greater than or equal to 300 GM. The upper limit of the two-photon absorption cross-section of the compound A is not particularly limited, and is, for example, 10000 GM. For example, the two-photon absorption cross-section may be measured by the z-scan technique described in J. Opt. Soc. Am. B, 2003, Vol. 20, p. 529. The z-scan technique is widely used as a method for measuring non-linear optical constants. In the z-scan technique, a measurement sample is moved along the beam irradiation direction near the focal point at which the laser beam is focused. During this process, the change in the amount of light transmitted through the measurement sample is recorded. In the z-scan technique, the power density of incident light changes depending on the location of the measurement sample. Thus, when the measurement sample absorbs light non-linearly, the amount of transmitted light is attenuated when the measurement sample is located near the focal point of the laser beam. The two-photon absorption cross-section may be calculated by fitting the changes in the amount of transmitted light based on the theoretical curve predicted from conditions, such as the intensity of the incident light, the thickness of the measurement sample, and the concentration of the compound A in the measurement sample.
The two-photon absorption cross-section of the compounds of Examples and Comparative Examples was measured with respect to light having a wavelength of 405 nm. The measurement of the two-photon absorption cross-section was performed using the z-scan technique described in J. Opt. Soc. Am. B, 2003, Vol. 20, p. 529. The light source used for the measurement of the two-photon absorption cross-section was a Ti:sapphire pulsed laser. Specifically, second harmonic waves from the Ti:sapphire pulsed laser were applied to the sample. The pulse width of the laser was 80 fs. The repetition frequency of the laser was 1 kHz. The average power of the laser was changed in the range of greater than or equal to 0.01 mW and less than or equal to 0.08 mW. […] The full width at half maximum of the light from the laser was 4 nm.

Structure (SMILES): COc1cc(Br)c(-c2cc(OC)c(OC)cc2-c2cc(OC)c(OC)cc2-c2cc(OC)c(OC)cc2Br)cc1OC [Ex. 1]
- Molar absorption coefficient ε [1]: 1.34 L/mol/cm
- Two-photon absorption cross-section σ [2]: 51 GM
- Ratio σ/ε [2]: 38

Structure (SMILES): COc1cc(Br)c(-c2cc(OC)c(OC)cc2-c2cc(OC)c(OC)cc2-c2cc(OC)c(OC)cc2-c2cc(OC)c(OC)cc2-c2cc(OC)c(OC)cc2-c2cc(OC)c(OC)cc2-c2cc(OC)c(OC)cc2Br)cc1OC [Ex. 2]
- Molar absorption coefficient ε [1]: 1.01 L/mol/cm
- Two-photon absorption cross-section σ [2]: 73 GM
- Ratio σ/ε [2]: 72

Structure (SMILES): COc1cc(Br)c(-c2cc(OC)c(OC)cc2-c2cc(OC)c(OC)cc2-c2cc(OC)c(OC)cc2-c2cc(OC)c(OC)cc2-c2cc(OC)c(OC)cc2-c2cc(OC)c(OC)cc2-c2cc(OC)c(OC)cc2-c2cc(OC)c(OC)cc2-c2cc(OC)c(OC)cc2-c2cc(OC)c(OC)cc2-c2cc(OC)c(OC)cc2Br)cc1OC [Ex. 3]
- Molar absorption coefficient ε [1]: 0.50 L/mol/cm
- Two-photon absorption cross-section σ [2]: 71 GM
- Ratio σ/ε [2]: 142

Structure (SMILES): COc1cc(Br)c(-c2cc(OC)c(OC)cc2-c2cc(OC)c(OC)cc2-c2cc(OC)c(OC)cc2-c2cc(OC)c(OC)cc2-c2cc(OC)c(OC)cc2-c2cc(OC)c(OC)cc2-c2cc(OC)c(OC)cc2-c2cc(OC)c(OC)cc2-c2cc(OC)c(OC)cc2-c2cc(OC)c(OC)cc2-c2cc(OC)c(OC)cc2-c2cc(OC)c(OC)cc2-c2cc(OC)c(OC)cc2Br)cc1OC [Ex. 4]
- Molar absorption coefficient ε [1]: 0.49 L/mol/cm
- Two-photon absorption cross-section σ [2]: 82 GM
- Ratio σ/ε [2]: 167

More lines, now with the values ahead:

- Molar absorption coefficient ε [1]: 1.51 L/mol/cm
- Two-photon absorption cross-section σ [2]: 336 GM
- Ratio σ/ε [2]: 223
Structure (SMILES): COc1cc(Br)c(-c2cc(OC)c(OC)cc2-c2cc(OC)c(OC)cc2-c2cc(OC)c(OC)cc2-c2cc(OC)c(OC)cc2-c2cc(OC)c(OC)cc2-c2cc(OC)c(OC)cc2-c2cc(OC)c(OC)cc2-c2cc(OC)c(OC)cc2-c2cc(OC)c(OC)cc2-c2cc(OC)c(OC)cc2-c2cc(OC)c(OC)cc2-c2cc(OC)c(OC)cc2-c2cc(OC)c(OC)cc2-c2cc(OC)c(OC)cc2-c2cc(OC)c(OC)cc2Br)cc1OC [Ex. 5]

- Two-photon absorption cross-section σ [2]: could not be measured
Structure (SMILES): COc1cc(Br)c(-c2cc(OC)c(OC)cc2-c2cc(OC)c(OC)cc2Br)cc1OC [OP3Br]

- Molar absorption coefficient ε [1]: 2730 L/mol/cm
- Two-photon absorption cross-section σ [2]: 23000 GM
- Ratio σ/ε [2]: 10
Structure (SMILES): C(#Cc1c(C#Cc2ccccc2)c(C#Cc2ccccc2)c(C#Cc2ccccc2)c(C#Cc2ccccc2)c1C#Cc1ccccc1)c1ccccc1 [compound 1, hexakis(phenylethynyl)benzene, reference compound]

- Molar absorption coefficient ε [1]: 70 L/mol/cm
- Two-photon absorption cross-section σ [2]: 380 GM
- Ratio σ/ε [2]: 5
Structure (SMILES): OC(C#Cc1ccc(N(c2ccc(C#CC(O)(c3ccccc3)c3ccccc3)cc2)c2ccc(C#CC(O)(c3ccccc3)c3ccccc3)cc2)cc1)(c1ccccc1)c1ccccc1 [compound 2, reference compound]
